{"source": "patent US20220232834A1", "about": "“PSEUDOMONAS CHLORORAPHIS SPECIES AND ITS USE IN THE CONTROL OF DISEASES CAUSED BY BACTERIA AND FUNGI” (T3 BIOSCIENCE, LLC, priority 2021, published 2022)", "key": {"[1]": {"test_system": "Xanthomonas euvesicatoria 75-3", "assay": "microbe, parasite or virus in culture", "type": "cell-based", "details": "753"}, "[2]": {"test_system": "Staphylococcus aureus ATCC 12600", "details": "Ref 6; producer Pseudomonas aurantiaca; cited from earlier work"}, "[3]": {"test_system": "Bacillus subtilis subsp. spizizenii ATCC 6633", "details": "Ref 6; producer Pseudomonas aurantiaca; cited from earlier work"}, "[4]": {"test_system": "Enterococcus hirae ATCC 8043", "details": "Ref 6; producer Pseudomonas aurantiaca; cited from earlier work"}, "[5]": {"details": "Ref 5, producer Pseudomonas sp. DC165, cited from earlier work"}, "[6]": {"test_system": "Phytophthora infestans 88069", "assay": "microbe, parasite or virus in culture", "type": "cell-based"}, "Candida albicans": {"test_system": "Candida albicans", "details": "Ref 1; producer Pseudomonas sp. Ki19; cited from earlier work"}, "[7]": {"test_system": "Pseudomonas syringae. pv. tomato PT30", "assay": "microbe, parasite or virus in culture", "type": "cell-based"}, "[8]": {"test_system": "Streptococcus mutans ATCC 25175", "details": "Ref 6; producer Pseudomonas aurantiaca; cited from earlier work"}, "[9]": {"test_system": "Venturia inaequalis VI19-032", "assay": "microbe, parasite or virus in culture", "type": "cell-based", "details": "VI19032"}, "Fusarium culmorum": {"test_system": "Fusarium culmorum", "details": "Ref 1; producer Pseudomonas sp. Ki19; cited from earlier work"}, "Botrytis cinerea CA17": {"test_system": "Botrytis cinerea CA17", "assay": "microbe, parasite or virus in culture", "type": "cell-based"}, "Aspergillus fumigatus": {"test_system": "Aspergillus fumigatus", "details": "Ref 1; producer Pseudomonas sp. Ki19; cited from earlier work"}, "Drechslera sorokiniana": {"test_system": "Drechslera sorokiniana", "details": "Ref 1; producer Pseudomonas sp. Ki19; cited from earlier work"}, "[10]": {"test_system": "Clavibacter michiganensis subsp. michiganensis 382", "assay": "MIC value study of 1214-CHY4 metabolites", "type": "cell-based"}, "Staphyllococcus aureus": {"test_system": "Staphyllococcus aureus", "details": "Ref 1; producer Pseudomonas sp. Ki19; cited from earlier work"}, "Pseudomonas sevastanoi": {"test_system": "Pseudomonas sevastanoi", "details": "Ref 1; producer Pseudomonas sp. Ki19; cited from earlier work"}, "[11]": {"test_system": "Ralstonia solanacearum K60", "assay": "microbe, parasite or virus in culture", "type": "cell-based", "details": "Ralstonia solanacearum, K60"}, "[12]": {"test_system": "Staphylococcus epidermidis ATCC 14990", "details": "Ref 6; producer Pseudomonas aurantiaca; cited from earlier work"}, "Staphylococcus aureus": {"test_system": "Staphylococcus aureus", "details": "Ref 3-4; producer Pseudomonas sp. B-9004; cited from earlier work"}, "[13]": {"test_system": "22 bacteria and fungi, including Gram-positive bacteria mycobacteria", "details": "Ref 3-4; producer Pseudomonas sp. B-9004; cited from earlier work"}}, "note": "Read-outs that look alike come from different tables or passages of the source. Marks after values point to notes of the source that are not given here.", "data": [{"smiles": "CCCCCCc1c(O)cc(CCCCC)cc1O", "note": "(single isomer, unassigned) [Peak 2, 2-hexyl-5-pentylbenzene-1,3-diol]", "values": [{"measurement": "MIC", "setting": "[1]", "result": 78, "unit": "µg/mL"}, {"measurement": "Activity (MIC values)", "setting": "[2]", "result": "ATCC 12600 (2.1 μg/mL)"}, {"measurement": "Activity (MIC values)", "setting": "[3]", "result": "ATCC 6633(4.2 μg/mL)"}, {"measurement": "Activity (MIC values)", "setting": "[4]", "result": "ATCC 8043 (4.2 μg/mL)"}, {"measurement": "Activity: free radical scavenging", "setting": "[5]", "result": "Free radical scavenging substances"}, {"measurement": "Activity: free radical scavenging", "setting": "[5]; listed as Resorstatin", "result": "free radical scavenging substance"}, {"measurement": "MIC", "setting": "[6]", "result": "> 100", "unit": "µg/mL"}, {"measurement": "Activity (MIC values)", "setting": "Candida albicans", "result": "Candida albicans (50 μg/mL)"}, {"measurement": "MIC", "setting": "[7]", "result": 312, "unit": "µg/mL"}, {"measurement": "Activity (MIC values)", "setting": "[8]", "result": "ATCC 25175(4.2 μg/mL)"}, {"measurement": "MIC", "setting": "[9]", "result": "> 100", "unit": "µg/mL"}, {"measurement": "Activity (MIC values)", "setting": "Fusarium culmorum", "result": "Fusarium culmorum (50 μg/mL)"}, {"measurement": "MIC", "setting": "Botrytis cinerea CA17", "result": "> 100", "unit": "µg/mL"}, {"measurement": "Activity (MIC values)", "setting": "Aspergillus fumigatus", "result": "Aspergillus fumigatus (50 μg/mL)"}, {"measurement": "Activity (MIC values)", "setting": "Drechslera sorokiniana", "result": "Drechslera sorokiniana (50 μg/mL)"}, {"measurement": "MIC", "setting": "[10]", "result": "1.56^c μg/mL"}, {"measurement": "MIC", "setting": "[10]; Clavibacter michiganensis", "result": 1.56, "unit": "µg/mL"}, {"measurement": "Activity (MIC values)", "setting": "Staphyllococcus aureus", "result": "Staphyllococcus aureus (7 μg/mL)"}, {"measurement": "Activity (MIC values)", "setting": "Pseudomonas sevastanoi", "result": "Pseudomonas sevastanoi (50 μg/mL)"}, {"measurement": "MIC", "setting": "[11]", "result": "> 25", "unit": "mg/mL"}, {"measurement": "Activity (MIC values)", "setting": "[12]", "result": "ATCC 14990 (4.2 μg/mL)"}]}, {"smiles": "CCCCCCCc1cc(O)c(CCCCCC)c(O)c1", "note": "(single isomer, unassigned) [Peak 3, 2-hexyl-5-heptylbenzene-1,3-diol]", "values": [{"measurement": "MIC", "setting": "[1]", "result": 78, "unit": "µg/mL"}, {"measurement": "Activity (MIC values)", "setting": "[2]", "result": "ATCC 12600 (4.2 μg/mL)"}, {"measurement": "Activity (MIC values)", "setting": "[3]", "result": "ATCC 6633(33.4 μg/mL)"}, {"measurement": "Activity (MIC values)", "setting": "[4]", "result": "ATCC 8043 (8.4 μg/mL)"}, {"measurement": "MIC", "setting": "[6]", "result": "> 100", "unit": "µg/mL"}, {"measurement": "MIC", "setting": "[7]", "result": 156, "unit": "µg/mL"}, {"measurement": "Activity (MIC values)", "setting": "[8]", "result": "ATCC 25175(8.4 μg/mL)"}, {"measurement": "MIC", "setting": "[9]", "result": "> 100", "unit": "µg/mL"}, {"measurement": "MIC", "setting": "Botrytis cinerea CA17", "result": "> 100", "unit": "µg/mL"}, {"measurement": "MIC", "setting": "[10]; Clavibacter michiganensis", "result": 0.78, "unit": "µg/mL"}, {"measurement": "MIC", "setting": "[10]; modified broth dilution (microdilution) method", "result": "0.78^c μg/mL"}, {"measurement": "MIC", "setting": "[11]", "result": "> 25", "unit": "mg/mL"}, {"measurement": "Activity (MIC values)", "setting": "[12]", "result": "ATCC 14990 (4.2 μg/mL)"}]}, {"smiles": "CCCCCCc1c(O)cc(CCC)cc1O", "note": "[DB2073]", "values": [{"measurement": "Activity (MIC values)", "setting": "Staphylococcus aureus", "result": "(25 μg/mL)"}, {"measurement": "Activity", "setting": "[13]", "result": "Active against 22 bacteria and fungi,"}]}]}
